# What was measured:
# Type in all cases: functional
# HeLa [1] = experiment: Induction of apoptosis in human HeLa cells assessed as necrotic cells at 26.1 uM incubated for 48 hrs by annexinV-FITC/propidium iodide staining based flow cytometry analysis (reference value: 0.0%)
# HeLa [2] = experiment: Induction of apoptosis in human HeLa cells assessed as late apoptotic cells at 26.1 uM incubated for 48 hrs by annexinV-FITC/propidium iodide staining based flow cytometry analysis (reference value: 0.1%)
# HeLa [3] = experiment: Induction of apoptosis in human HeLa cells assessed as early apoptotic cells at 26.1 uM incubated for 48 hrs by annexinV-FITC/propidium iodide staining based flow cytometry analysis (reference value: 0.1%)
# HeLa [4] = experiment: Induction of apoptosis in human HeLa cells assessed as viable cells at 13.2 uM incubated for 48 hrs by annexinV-FITC/propidium iodide staining based flow cytometry analysis (reference value: 99.8%); conditions: read-out: Activity
# HeLa [5] = experiment: Induction of apoptosis in human HeLa cells assessed as early apoptotic cells at 13.2 uM incubated for 48 hrs by annexinV-FITC/propidium iodide staining based flow cytometry analysis (reference value: 0.1%)
# HeLa [6] = experiment: Induction of apoptosis in human HeLa cells assessed as necrotic cells at 13.2 uM incubated for 48 hrs by annexinV-FITC/propidium iodide staining based flow cytometry analysis (reference value: 0.0%)
# HeLa [7] = experiment: Induction of apoptosis in human HeLa cells assessed as viable cells at 19.6 uM incubated for 48 hrs by annexinV-FITC/propidium iodide staining based flow cytometry analysis (reference value: 99.8%); conditions: read-out: Activity
# HeLa [8] = experiment: Induction of apoptosis in human HeLa cells assessed as early apoptotic cells at 19.6 uM incubated for 48 hrs by annexinV-FITC/propidium iodide staining based flow cytometry analysis (reference value: 0.1%)
# HeLa [9] = experiment: Induction of apoptosis in human HeLa cells assessed as late apoptotic cells at 19.6 uM incubated for 48 hrs by annexinV-FITC/propidium iodide staining based flow cytometry analysis (reference value: 0.1%)
# HeLa [10] = experiment: Induction of apoptosis in human HeLa cells assessed as necrotic cells at 19.6 uM incubated for 48 hrs by annexinV-FITC/propidium iodide staining based flow cytometry analysis (reference value: 0.0%)
# HeLa [11] = experiment: Induction of cell cycle arrest in human HeLa cells assessed as <2N cells at 12.3 uM incubated for 12 hrs by RNAse A/PI staining based flow cytometric analysis (reference value: 41.6%)
# HeLa [12] = experiment: Induction of cell cycle arrest in human HeLa cells assessed as 2N cells at 12.3 uM incubated for 12 hrs by RNAse A/PI staining based flow cytometric analysis (reference value: 29.9%)
# HeLa [13] = experiment: Induction of cell cycle arrest in human HeLa cells assessed as S phase cells at 12.3 uM incubated for 12 hrs by RNAse A/PI staining based flow cytometric analysis (reference value: 20.5%)
# HeLa [14] = experiment: Induction of cell cycle arrest in human HeLa cells assessed as 4N cells at 12.3 uM incubated for 12 hrs by RNAse A/PI staining based flow cytometric analysis (reference value: 5.37%)
# HeLa [15] = experiment: Induction of cell cycle arrest in human HeLa cells assessed as >4N cells at 12.3 uM incubated for 12 hrs by RNAse A/PI staining based flow cytometric analysis (reference value: 2.61%)
# HeLa [16] = experiment: Induction of cell cycle arrest in human HeLa cells assessed as <2N cells at 12.3 uM incubated for 24 hrs by RNAse A/PI staining based flow cytometric analysis (reference value: 41.6%)
# HeLa [17] = experiment: Induction of cell cycle arrest in human HeLa cells assessed as S phase cells at 12.3 uM incubated for 24 hrs by RNAse A/PI staining based flow cytometric analysis (reference value: 20.5%)
# HeLa [18] = experiment: Induction of cell cycle arrest in human HeLa cells assessed as 4N cells at 12.3 uM incubated for 24 hrs by RNAse A/PI staining based flow cytometric analysis (reference value: 5.37%)
# HeLa [19] = experiment: Induction of cell cycle arrest in human HeLa cells assessed as >4N cells at 12.3 uM incubated for 24 hrs by RNAse A/PI staining based flow cytometric analysis (reference value: 2.61%)
# HeLa [20] = experiment: Induction of cell cycle arrest in human HeLa cells assessed as <2N cells at 6.2 uM incubated for 48 hrs by RNAse A/PI staining based flow cytometric analysis (reference value: 41.6%)
# HeLa [21] = experiment: Induction of cell cycle arrest in human HeLa cells assessed as S phase cells at 6.2 uM incubated for 48 hrs by RNAse A/PI staining based flow cytometric analysis (reference value: 20.5%)
# HeLa [22] = experiment: Induction of cell cycle arrest in human HeLa cells assessed as 4N cells at 6.2 uM incubated for 48 hrs by RNAse A/PI staining based flow cytometric analysis (reference value: 5.37%)
# HeLa [23] = experiment: Induction of cell cycle arrest in human HeLa cells assessed as >4N cells at 6.2 uM incubated for 48 hrs by RNAse A/PI staining based flow cytometric analysis (reference value: 2.61%)
# HeLa [24] = experiment: Induction of cell cycle arrest in human HeLa cells assessed as <2N cells at 12.3 uM incubated for 48 hrs by RNAse A/PI staining based flow cytometric analysis (reference value: 41.6%)
# HeLa [25] = experiment: Induction of cell cycle arrest in human HeLa cells assessed as 2N cells at 12.3 uM incubated for 48 hrs by RNAse A/PI staining based flow cytometric analysis (reference value: 29.9%)
# HeLa [26] = experiment: Induction of cell cycle arrest in human HeLa cells assessed as >4N cells at 12.3 uM incubated for 48 hrs by RNAse A/PI staining based flow cytometric analysis (reference value: 2.61%)
# HeLa [27] = experiment: Induction of cell cycle arrest in human HeLa cells assessed as <2N cells at 24.6 uM incubated for 48 hrs by RNAse A/PI staining based flow cytometric analysis (reference value: 41.6%)
# HeLa [28] = experiment: Induction of cell cycle arrest in human HeLa cells assessed as >4N cells at 24.6 uM incubated for 48 hrs by RNAse A/PI staining based flow cytometric analysis (reference value: 2.61%)
# HeLa [29] = experiment: Induction of cell cycle arrest in human HeLa cells assessed as accumulation at G2/M phase at 6.2 uM by RNAse A/PI staining based flow cytometric analysis relative to control
# HeLa [30] = experiment: Induction of cell cycle arrest in human HeLa cells assessed as accumulation at G2/M phase at 24.6 uM by RNAse A/PI staining based flow cytometric analysis relative to control
# HeLa [31] = experiment: Induction of mitochondrial membrane potential loss in human HeLa cells assessed as decrease in fluorescence intensity […] at 6.2 uM by Rhodamine 123 staining based flow cytometric analysis (reference value: 58.0%); set-up: scale not given: the % may be the effect or the level left
# HeLa [32] = experiment: Induction of mitochondrial membrane potential loss in human HeLa cells assessed as decrease in fluorescence intensity […] at 24.6 uM by Rhodamine 123 staining based flow cytometric analysis (reference value: 58.0%); set-up: scale not given: the % may be the effect or the level left
smiles,measurement,setting,value
CC[C@H](C)[C@@H]1NC(=O)[C@H](CC(C)C)NC(=O)[C@@H]2CSCN2C(=O)[C@@H]2CSCN2C(=O)CN2C(=O)c3ccccc3[C@@]2(O)CN(Cc2ccccc2)C1=O,Activity,HeLa [1],0.9%
same,Activity,HeLa [2],6.4%
same,Activity,HeLa [3],34.6%
same,viability at 13.2 µM,HeLa [4],84.5%
same,Activity,HeLa [5],5.6%
same,Activity,HeLa [6],2.6%
same,viability at 19.6 µM,HeLa [7],68.6%
same,Activity,HeLa [8],23.3%
same,Activity,HeLa [9],6.7%
same,Activity,HeLa [10],1.3%
same,Activity,HeLa [11],33.1%
same,Activity,HeLa [12],28.8%
same,Activity,HeLa [13],11.5%
same,Activity,HeLa [14],16.8%
same,Activity,HeLa [15],9.83%
same,Activity,HeLa [16],33%
same,Activity,HeLa [17],10.2%
same,Activity,HeLa [18],25.1%
same,Activity,HeLa [19],11%
same,Activity,HeLa [20],37.5%
same,Activity,HeLa [21],11.1%
same,Activity,HeLa [22],17%
same,Activity,HeLa [23],9.53%
same,Activity,HeLa [24],14.9%
same,Activity,HeLa [25],28.1%
same,Activity,HeLa [26],0%
same,Activity,HeLa [27],14.4%
same,Activity,HeLa [28],3.51%
same,Activity,HeLa [29],17%
same,Activity,HeLa [30],47.5%
same,Activity,HeLa [31],52.6%
same,Activity,HeLa [32],19.4%
